In US5945507A, “Antimicrobial peptides” (University of Pittsburgh, priority 1997, dated 1999):
Entries after “also recorded” stand apart in the source; their conditions may differ. Where two headings read alike, the source gives them in different places. Bridge positions count the residues as written; N and C are the ends. Ends that are not written are not given here. I, II: the chains in the order shown.

Assays:
S. aureus [1] = format: cell-based, Staphylococcus aureus; details: for antibacterial activity (in words): S. aureus; for MBC50: in µM
Procedure: Bacterial lysis assay. Bacterial lysis assays were conducted in a manner similar to that described previously (Lehrer, R. I., M. E. Selsted, D. Szklarek, and F. J. 1983. Infect. Immun. 42:10-14, 1983; Miller, M. A., R. F. Garry, J. M. Jaynes, and R. C. Montelaro, AIDS Res Hum Retroviruses 7:511-519, 1991). Bacterial suspensions were cultured in Luria Broth to mid-log growth phase and washed by several cycles of centrifugation and resuspension in 10 mM phosphate buffer. The A600 of the suspension was adjusted with 10 mM phosphate buffer such that, upon dilution, 5-10×10^5 CFU/ml would be treated in the assay. Bacteria were incubated with two-fold dilutions of peptides (32-0.1 μM in 96-well plates in 10 mM phosphate buffer, pH 7.2, for 1 hour. Ten-fold dilutions were performed to a dilution of 1:1000; a 100-μl aliquot from each condition was plated on tryptic soy agar (Difco, Detroit, Mich.) and the plates were incubated overnight. Colonies of surviving bacteria (colony-forming units) were counted and compared to untreated controls to determine the amount of peptide-induced killing under each condition. Log killing is defined as the log of the ratio of CFUs present before and after treatment with peptide. Complete killing is indicated where there were zero colonies per 100-μl aliquot of undiluted bacteria-peptide mixture.
Calculation of MBC. […] The minimal bactericidal concentration, MBC, is the peptide concentration at which 99.9% (3 logs) killing is achieved (Pearson et al., Antimicrob. Agents Chemother. 18:699-708, 1980). The MBC50 is the peptide concentration at which 50% killing is achieved.

[2] = tested on: human red blood cells (RBC); format: cell-based; details: for % lysis at 100 μM: erythrocytes, 100 μM peptide; for hemolytic activity (in words): red blood cells; for hemolytic activity: red cells of human, 100 μM
Text: Erythrocyte Lysis Assay. Peptides were screened for hemolytic activity by treating freshly isolated human red blood cells (RBC) with various concentrations of peptides, centrifuging the samples to pellet intact cells, and measuring the amount of hemoglobin in the supernatant to determine the extent of RBC lysis under each condition. The method used is essentially that described by Srinivas et al. (J. Biol. Chem. 267:7121-7127, 1992) with the following modifications: peptide concentrations of 0.1-100 μM were tested, the incubation period was 1 hour at 37° C., and the A570 was measured in duplicate wells of a 96-well plate. A calibration curve was constructed by treating various amounts of red blood cells (0, 20,40, 60, 80, and 100% of the volume of RBC used in test samples) with plain water, which completely lyses the cells. The standard curve was used to calculate the percent lysis at each peptide concentration.

S. aureus [3] = assay: Kinetics of bacterial killing, S. aureus; format: cell-based, Staphylococcus aureus; details: 10 μM peptide, FIG. 5
Procedure: Kinetics of Bacterial Killing. The time course of the cytolytic activity of a peptide was determined by a modification of the above procedure, where a volume of appropriately diluted bacteria was treated with 1-10 μM peptide; aliquots of this mixture were removed every 10 seconds and diluted 1:2 in 2× Luria Broth; each resulting suspension was subsequently plated on agar as described above. The number of colonies visible upon incubation for each time point was used to calculate a rate of killing by the peptide.

[4] = Table 4, peptide concentration (closest 2-fold dilution) reducing CFU/ml by 50%
[5] = Table 4, peptide concentration (closest 2-fold dilution) reducing CFU/ml by 99.9%, 1 hour
[6] = Table 7, substitution analogs, 50% reduction of CFU/ml
[7] = Table 7, substitution analogs, 99.9% reduction of CFU/ml
[8] = Table 6, truncated analogs, 50% reduction of CFU/ml
[9] = Table 6, truncated analogs, 99.9% reduction of CFU/ml

| Substance | antibacterial activity (in words) (S. aureus [1]) | MBC50 (S. aureus [1]; [6]) | MBC (S. aureus [1]; [7]) | % lysis at 100 μM ([2]; Table 7) | hemolytic activity (in words) [2] | other results |
| --- | --- | --- | --- | --- | --- | --- |
| LLSRVYQILQPILQRLSATLQRIREVLR [SLP2B, SIVMM239 790-817] | highly active | – | – | – | – | MBC50 (S. aureus [1]; [4]): .25; MBC (S. aureus [1]; [5]): 1 µM |
| RVIEVVQGACRAIRHIPRRIRGQLERIL [LLP1-Am, LLP1 with chemically modified cysteine] | – | – | – | – | – | MBC50 (S. aureus [1]; Table 8, cysteine substitution analogs, 50% reduction of CFU/ml): 5; MBC (S. aureus [1]; Table 8, cysteine substitution analogs, 99.9% reduction of CFU/ml): 20 µM; % lysis at 100 μM ([2]; Table 8): 15% |
| RVIEVVQGACRAIRHIPRRSRQGLERIL [Peptide I847S, engineered analog of LLP1] | reduces antibacterial activity | 5 | 20 µM | < 10% | significantly reduced | – |
| RVIRVVQGACRAIRHIPRRIRQGLRRIL [Analog 5, engineered analog of LLP1] | very high antibacterial and hemolytic activity | 0.3 | 2.5 µM | 100% | very high antibacterial and hemolytic activity | – |
| RVIEVVQGACRAIEHIPRRIEQGLERIL [Analog 3, engineered analog of LLP1] | devoid of activity | > 80 | > 80 µM | < 5% | devoid of activity | – |
| RVIEVVQGACRAIRHIPRRIRQGLERIL [LLP1] | – | – | – | – | Below 10 μM very little lysis is observed | % lysis at 100 μM ([2]; Table 8): 100%; hemolytic LD50 ([2]; text b508): 20 to 40 µM; killing within one minute (S. aureus [3]): over 99.99% |
| FLIRQLIRLLTWLFSNCRTLLSRVY [SLP2A, SIVMM239 771-795] | highly active | – | – | – | rather hemolytic | MBC50 (S. aureus [1]; [4]): 4; MBC (S. aureus [1]; [5]): > 32 µM |
| RIAGYGLRGLAVIIRICIRGLNLIFEIIR [ELP, EIAV 808-836 (Wyoming)] | absence of measurable bactericidal activity; also recorded: little antibacterial activity | – | – | – | high hemolytic activity; also recorded: highly hemolytic | MBC50 (S. aureus [1]; [4]): > 10; MBC (S. aureus [1]; [5]): > 10 µM |
| DLWETLRRGGRWILAIPRRIRQGLELTL [SLP1] | – | – | – | – | – | MBC50 (S. aureus [1]; [4]): 8; MBC (S. aureus [1]; [5]): > 16 µM |
| GACRAIRHIPRRIR [LP14] | high level of antibacterial activity | – | – | – | virtually no hemolytic activity | MBC50 (S. aureus [1]; [8]): 2.5; MBC (S. aureus [1]; [9]): 10 µM; hemolytic activity [2]: less than 10% |
| RVIEVVQGACRAIEHIPRRIRQGLERIL [Peptide R841E, engineered analog of LLP1] | reducing both the antibacterial and hemolytic activity | 10-20 | 40 to 80 µM | 30% | reducing both the antibacterial and hemolytic activity | – |
| YHRLRDLLLIVTRIVELLGRR [LLP2, HIVHXB2R 768-788] | highly active | – | – | – | – | MBC50 (S. aureus [1]; [4]): 1; MBC (S. aureus [1]; [5]): 4 µM |
| LLSEVYQILQPILQELSATLQRIREVLR [SLP2B1, engineered analog of SLP2B] | – | > 32 | > 32 µM | 10% | – | – |
| VVQGACRAIRHIPRRIR [LP17] | high level of antibacterial activity | – | – | – | virtually no hemolytic activity | MBC50 (S. aureus [1]; [8]): 5; MBC (S. aureus [1]; [9]): 20 µM; hemolytic activity [2]: less than 10% |
| RVIEVVQGACRAIRHIPRRIR [LP21] | high level of antibacterial activity | – | – | – | virtually no hemolytic activity | MBC50 (S. aureus [1]; [8]): 2.5; MBC (S. aureus [1]; [9]): 10 µM; hemolytic activity [2]: less than 10% |
| I: RVIEVVQGACRAIRHIPRRIRQGLERIL / II: RVIEVVQGACRAIRHIPRRIRQGLERIL (disulfide I:10-II:10) [bis-LLP1] | – | – | – | – | – | % lysis at 100 μM ([2]; Table 8): 100% |
| FLIRQLIELLTWLFSNCRTLLSEVY [SLP2A1, engineered analog of SLP2A] | – | > 32 | > 32 µM | 7% | – | – |
| RVIEVVQGACRAIRHIPRRIEQGLERIL [Peptide R848E, engineered analog of LLP1] | reducing both the antibacterial and hemolytic activity | 20 | 80 µM | 10% | reducing both the antibacterial and hemolytic activity | – |
| RVIEVVQGACRASRHIPRRIRQGLERIL [Peptide I840S, engineered analog of LLP1] | reduces antibacterial activity | 2.5 | 10 to 20 µM | < 10% | significantly reduced | – |
